Target: T1, farnesol X receptor (FXR) (Homo sapiens, UniProt Q96RI1)
T1 construct: endogenous in cells; host or cells: HepG2
T1 sequence (Q96RI1 1-486): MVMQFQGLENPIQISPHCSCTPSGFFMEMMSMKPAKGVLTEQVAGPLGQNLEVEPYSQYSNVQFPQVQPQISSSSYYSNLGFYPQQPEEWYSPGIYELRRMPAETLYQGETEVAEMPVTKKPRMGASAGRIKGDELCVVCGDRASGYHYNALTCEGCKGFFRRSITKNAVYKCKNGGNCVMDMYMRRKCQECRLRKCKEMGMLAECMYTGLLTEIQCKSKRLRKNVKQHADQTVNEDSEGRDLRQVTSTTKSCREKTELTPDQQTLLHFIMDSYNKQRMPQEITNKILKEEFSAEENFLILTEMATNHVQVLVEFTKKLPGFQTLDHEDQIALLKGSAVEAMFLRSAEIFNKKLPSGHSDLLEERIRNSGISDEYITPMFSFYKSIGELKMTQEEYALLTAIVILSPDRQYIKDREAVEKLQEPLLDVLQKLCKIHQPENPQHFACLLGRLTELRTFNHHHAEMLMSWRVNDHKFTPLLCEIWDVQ
Assay: Farnesol X receptor (FXR) reporter gene assay (dual luciferase) in HepG2 cells
Format: cell-based
Conditions: for fold induction at 10 µM: HepG2 cells, drug treatment 24 hours, firefly/renilla luciferase ratio, Con = 1.00; for FXR activating effect compared with GW4064: statement on Table 4 data
Experimental: HepG2 cells were purchased from ATCC (Manassas, VA, USA) and cultured in Dulbecco's modified Eagle's medium (DMEM; Hyclone) containing 10% fetal bovine serum (FBS, Hyclone, Logan, UT, USA), 50 units/mL penicillin (Hyclone) and 50 μg/mL streptomycin (Hyclone). All cells were cultured to have a confluency of about 80% to 90% under the conditions of 37° C. and 5% Co2.
In order to measure FXR transcription factor activity, HepG2 cells (1×10^5 cells/well) were cultured in a 48-well cell culture plate (SPL Life Science Co., Gyeonggido, Korea) for 20 hours and then transduced using Lipofectamin L3000 (Invitrogen, San Diego, CA, USA). Luciferase is an enzyme that catalyzes light-emitting reactions. A plasmid in which the firefly luciferase gene was fused to farnesol X receptor (FXR) and a plasmid in which the renilla luciferase gene was fused to thymidine kinase (TK) were used for transduction. Reacted were 25 μL of serum and antibiotic-free Opti-MEM® (Life Technologies, Grand Island, NY) and 0.5 μL of Lipofectamin L3000 per 0.5 μg of FXR-firefly luciferase plasmid and 10 ng of TK-renilla luciferase plasmid, and the cells were reacted with the reaction mixture for 24 hours. Thereafter, DMEM medium containing 0.1% serum was treated with a drug for 24 hours. After the reaction was completed, the drug-treated culture medium was discarded, and lysis buffer was added at 0.4 ml/well to remove the cells, then the cells were dispensed into a 96-well white plate (SPL Life Science Co.), and the luminescence level was measured using the Dual-glo Luciferase Assay System (Promega, Madison, WI, USA). For the firefly luciferase activity (to see the level of FXR expression) and renilla luciferase activity (to provide a reference value by showing constant expression), the luminescence level was measured using the GloMax Multi Detection System (Promega) and then the relative ratio (firefly luciferase activity/renilla luciferase activity) was calculated.

Row | fold induction at 10 µM | FXR activating effect compared with GW4064 | SMILES
1 | 1.19 |  | O=C(O)CNC(=O)/C=C/c1ccc(OCc2cccc(OC(F)(F)F)c2)cc1 [KS-019, (E)-(3-(4-((3-(trifluoromethoxy)benzyl)oxy)phenyl)acryloyl)glycine]
2 | 1.44 |  | CCOC(=O)CNC(=O)/C=C/c1ccc(OCc2cc(F)c(F)cc2F)cc1 [KS-009, ethyl (E)-(3-(4-((2,4,5-trifluorobenzyl)oxy)phenyl)acryloyl)glycinate]
3 | 1.71 |  | Cc1onc(-c2c(Cl)cccc2Cl)c1COc1ccc(/C=C/C(=O)N[C@@H](C)C(=O)O)cc1 [KS-029, (E)-(3-(4-((3-(2,6-dichlorophenyl)-5-methylisoxazol-4-yl)methoxy)phenyl)acryloyl)-L-alanine]
4 | 1.28 |  | O=C(O)CNC(=O)/C=C/c1ccc(OCc2ccc([N+](=O)[O-])cc2)cc1 [KS-018, (E)-(3-(4-((4-nitrobenzyl)oxy)phenyl)acryloyl)glycine]
5 | 9.55 | superior to GW4064 | COC(=O)[C@@H](C)NC(=O)/C=C/c1ccc(OCc2c(-c3c(Cl)cccc3Cl)noc2C(C)C)cc1 [KS-049, methyl (E)-(3-(4-((3-(2,6-dichlorophenyl)-5-isopropylisoxazol-4-yl)methoxy)phenyl)acryloyl)-D-alaninate]
6 | 8.91 | superior to GW4064 | CC(C)c1onc(-c2c(Cl)cccc2Cl)c1COc1ccc(/C=C/C(=O)N[C@H](C(=O)O)C(C)C)cc1 [KS-034, (E)-(3-(4-((3-(2,6-dichlorophenyl)-5-isopropylisoxazol-4-yl)methoxy)phenyl)acryloyl)-L-valine]
7 | 1.26 |  | CCOC(=O)[C@H](C)NC(=O)/C=C/c1ccc(OCc2c(-c3c(Cl)cccc3Cl)noc2C)cc1 [KS-026, ethyl (E)-(3-(4-((3-(2,6-dichlorophenyl)-5-methylisoxazol-4-yl)methoxy)phenyl)acryloyl)-L-alaninate]
8 | 1.21 |  | CCOC(=O)CNC(=O)/C=C/c1ccc(OCc2ccc(F)cc2)cc1 [KS-005, ethyl (E)-(3-(4-((4-fluorobenzyl)oxy)phenyl)acryloyl)glycinate]
9 | 1.65 |  | Cc1onc(-c2c(Cl)cccc2Cl)c1COc1ccc(/C=C/C(=O)N[C@H](C(=O)O)C(C)C)cc1 [KS-035, (E)-(3-(4-((3-(2,6-dichlorophenyl)-5-methylisoxazol-4-yl)methoxy)phenyl)acryloyl)-L-valine]
10 | 1.38 |  | CCOC(=O)CNC(=O)/C=C/c1ccc(OCc2ccc([N+](=O)[O-])cc2)cc1 [KS-006, ethyl (E)-(3-(4-((4-nitrobenzyl)oxy)phenyl)acryloyl)glycinate]
11 | 3.34 |  | CC(C)c1onc(-c2c(Cl)cccc2Cl)c1COc1ccc(/C=C/C(=O)NCC(=O)O)cc1 [KS-022, (E)-(3-(4-((3-(2,6-dichlorophenyl)-5-isopropylisoxazol-4-yl)methoxy)phenyl)acryloyl)glycine]
12 | 1.39 |  | O=C(O)CNC(=O)/C=C/c1ccc(OCc2cccc([N+](=O)[O-])c2)cc1 [KS-020, (E)-(3-(4-((3-nitrobenzyl)oxy)phenyl)acryloyl)glycine]
13 | 1.61 |  | CCOC(=O)CNC(=O)/C=C/c1ccc(OCc2c(-c3ccccc3)noc2C)cc1 [KS-012, ethyl (E)-(3-(4-((5-methyl-3-phenylisoxazol-4-yl)methoxy)phenyl)acryloyl)glycinate]
14 | 2 |  | COC(=O)[C@@H](C)NC(=O)/C=C/c1ccc(OCc2c(-c3c(Cl)cccc3Cl)noc2C)cc1 [KS-050, methyl (E)-(3-(4-((3-(2,6-dichlorophenyl)-5-methylisoxazol-4-yl)methoxy)phenyl)acryloyl)-D-alaninate]
15 | 7.44 | superior to GW4064 | CC(C)c1onc(-c2c(Cl)cccc2Cl)c1COc1ccc(/C=C/C(=O)N[C@@H](C)C(=O)O)cc1 [KS-028, (E)-(3-(4-((3-(2,6-dichlorophenyl)-5-isopropylisoxazol-4-yl)methoxy)phenyl)acryloyl)-L-alanine]
16 | 11.4 | superior to GW4064 | CC(C)c1onc(-c2c(Cl)cccc2Cl)c1COc1ccc(/C=C/C(=O)NCCC(=O)O)cc1 [KS-046, (E)-3-(3-(4-((3-(2,6-dichlorophenyl)-5-isopropylisoxazol-4-yl)methoxy)phenyl)acrylamido)propanoic acid]
17 | 2.65 |  | O=C(O)CNC(=O)/C=C/c1ccc(OCc2ccc(OC(F)(F)F)cc2)cc1 [KS-015, (E)-(3-(4-((4-(trifluoromethoxy)benzyl)oxy)phenyl)acryloyl)glycine]
18 | 2.21 |  | COC(=O)[C@H](Cc1ccccc1)NC(=O)/C=C/c1ccc(OCc2c(-c3c(Cl)cccc3Cl)noc2C)cc1 [KS-038, methyl (E)-(3-(4-((3-(2,6-dichlorophenyl)-5-methylisoxazol-4-yl)methoxy)phenyl)acryloyl)-L-phenylalaninate]
19 | 1.41 |  | Cc1onc(-c2ccccc2)c1COc1ccc(/C=C/C(=O)N[C@@H](Cc2ccccc2)C(=O)O)cc1 [KS-042, (E)-(3-(4-((5-methyl-3-phenylisoxazol-4-yl)methoxy)phenyl)acryloyl)-L-phenylalanine]
20 | 1.14 |  | O=C(O)CNC(=O)/C=C/c1ccc(OCc2ccc(F)cc2)cc1 [KS-017, (E)-(3-(4-((4-fluorobenzyl)oxy)phenyl)acryloyl)glycine]
21 | 1.65 |  | CCOC(=O)CNC(=O)/C=C/c1ccc(OCc2c(-c3c(Cl)cccc3Cl)noc2C)cc1 [KS-011, ethyl (E)-(3-(4-((3-(2,6-dichlorophenyl)-5-methylisoxazol-4-yl)methoxy)phenyl)acryloyl)glycinate]
22 | 10.5 | superior to GW4064 | CCOC(=O)CNC(=O)/C=C/c1ccc(OCc2c(-c3c(Cl)cccc3Cl)noc2C(C)C)cc1 [KS-010, ethyl (E)-(3-(4-((3-(2,6-dichlorophenyl)-5-isopropylisoxazol-4-yl)methoxy)phenyl)acryloyl)glycinate]

From patent publication US12552755B2, “Cinnamic amide derivative having FXR activating effect, pharmaceutical composition containing the same as active ingredient, and method for preparing the same” (KYUNGSUNG UNIVERSITY INDUSTRY COOPERATION FOUNDATION, priority 2019, dated 2026)
